Test results taken from patent US20260327211A1, “MODULATORS OF A POTASSIUM CHANNEL AND OF TRPV1 CHANNEL AND USES THEREOF” (Bsense Bio Therapeutics Ltd., priority 2023, published 2026).
Read-outs that look alike come from different tables or passages of the source.

Experiments:
[1] = Log D, 1-octanol/buffer shake flask; type: physicochemical; details: pH 7.4
Procedure: The Log D assay was a miniaturized 1-octanol/buffer shake flask method followed by LC/MS/MS analysis, as follows.
The test compounds or control compounds Nadolol, Chlorpromazine Hydrochloride and Propranolol Hydrochloride were dissolved in 100% DMSO to obtain 10 mM solutions, which were transferred to 96-well polypropylene cluster tubes; 2 μL/well. 1-octanol saturated with 0.1 M phosphate buffer (149 μL/well) and 0.1 M phosphate buffer saturated with 1-octanol (149 μL/well) were added to the tubes, respectively, and each tube was vigorously mixed for 2 minutes and then shaked at a speed of 800 rpm at room temperature for 1 hour, followed by centrifugation at 4000 rpm for 5 minutes at room temperature. Thereafter, for the test compounds and the Chlorpromazine Hydrochloride and Propranolol Hydrochloride, the sample of the buffer layer was diluted by a factor of 50-fold and the sample of 1-octanol layer was diluted by a factor of 2000-fold with internal standard (IS) solution. For Nadolol, the sample of the buffer layer was diluted by a factor of 1000-fold and the sample of 1-octanol layer was diluted by a factor of 400-fold with internal standard (IS) solution. The samples were analyzed using a triple quadrupole mass spectrometer. Peak areas were corrected by dilution factors and embedded internal standard, and the ratio of the corrected peak areas was used to calculate the Log D value. The Log D value for each compound will be calculated by the following equation: […]

[2] = Human liver microsome metabolic stability; type: in vitro ADME; details: for HLM T1/2 / half-life at 1 µM: human liver microsomes; for HLM T1/2: 1 µM; for half-life at 1 µM: human, liver microsomes, read-out: HLM T1/2
From the text: Liver microsomes which are subcellular particles derived from endoplasmic reticulum of hepatic cells were used for evaluating the tested compounds. These particles are rich in drug metabolizing enzymes, including the cytochrome p-450 family. Liver microsomes are a recommended test system for various in vitro drug metabolism and pharmacokinetics (DMPK) studies. CLint values lower than […] are considered suitable for drug development.
Liver Microsome Metabolic Stability Assay (NADPH): The liver microsome stability assay was evaluated through pre-incubation with HLMs. A liver microsome mixture (pooled from multiple donors) at a concentration of 0.5 mg/mL, and the test compound at a concentration of 1 μM, were warmed in the presence of a NADPH regenerating system (about 1.0 mM) at 37° C. Positive controls, including testosterone (a CYP3A4 substrate), propafenone (a CYP2D6 substrate), and diclofenac (a CYP2C9) substrate, were concurrently incubated with the HLMs, in the presence of the NADPH regenerating system (1.0 mM). Samples were extracted during incubation at multiple intervals: 0, 5, 15, 30, 45 and 60 minutes. To terminate the reactions, the samples were promptly mixed with cooled acetonitrile that included an internal standard (IS). An additional compound was incubated with the HLMs in the absence of the NADPH regeneration system, from which a sample was taken at the 60-minute interval.
The clearance of the test compound in the samples was subsequently analyzed by LC-MS/MS based on the peak area ratios of the analyte to the IS.
The following equation was used to calculate the microsome clearance: […]
Liver weight: 40 grams/kg, 30 grams/kg, 32 grams/kg, 20 grams/kg and 88 grams/kg, for rat, monkey, dog, human and mouse, respectively.

[3] = Metabolite identification (Met-ID), human hepatocytes; type: in vitro ADME; details: human hepatocytes
Procedure: Cell culture and incubation: Cryopreserved hepatocyte cells, from human and rat sources, were purchased from commercial sources or in-house production, and were cultured in Williams' Medium E supplemented with glutamine and HEPES, in a humidified 5% CO2 incubator at 37° C., to a cell density of […]. Then, solutions of test compounds at a concentration of 10 μM, or 7-Ethoxycoumarin, as a positive control, at a concentration of 30 μM, in Eagle's Minimum Essential Medium, Catalog No. 30-2003 (ATCC) supplemented with 20% fetal bovine serum, were introduced and the mixture was incubated for 120 minutes, or other specified time points.
The samples were analyzed for metabolites using an LC-MS method developed on […] and PDA systems. Comparative analyses of mass spectra and ion fragmentation between the parent compound and its metabolites were carried out, and metabolic profiling was determined using the mass spectrometric and/or PDA (UV) response. Hypothetical structures of metabolites and their metabolic pathways were proposed.

CYP3A4 = assay: CYP inhibition / time-dependent inhibition, CYP3A4_Midazolam; type: in vitro ADME, human; details: role: inhibitor; substrate midazolam 2.0 μM; CYP TDI ratio
Procedure: The time-dependent inactivation potency of the test compound to CYP enzymatic activities was assessed by the pre-incubation of the human liver microsomes with the test compound in the presence and absence of NADPH, followed by the incubation with the discrete marker substrates, as follows.
Pre-incubation with human liver microsomes (HLMs): The TDI inactivation potency on CYP enzymatic activities was evaluated through pre-incubation with HLMs (Corning). A liver microsome mixture at a concentration of 0.1 mg/mL, and the test compound at 8 different concentrations (0, 0.05, 0.165, 0.5, 1.65, 5.0, 16.5, or 50.0 μM) was warmed at 37° C. for 10 minutes. Concurrently, a set of known time-dependent inactivators was also prepared in duplicate for comparison. Following this, NADPH (1.0 mM) was added to one group (Group 1), and an equal volume of potassium phosphate buffer to the second group (Group 2), marking the beginning of a 30-minute pre-incubation at 37° C.
Incubation: After pre-incubation, the marker substrate, or marker substrate plus NADPH was added to the mixture, thereby initiating the incubation. The duration of the incubation was dependent on the type of CYP isoform being evaluated. For example, with the CYP3A isoform, the mixture was incubated over 3 minutes utilizing midazolam as the marker substrate (2.0 μM), verapamil as the standard inactivator (3.5 μM).
Termination of Reaction: Following the incubation, ice-cooled acetonitrile containing the internal standard (IS) was added to halt the reactions. Metabolites generated from the marker substrates were then measured via LC-MS/MS, assessed based on peak area ratios of the analyte to IS.

Rat pharmacokinetics = type: in vivo; details: rat, plasma
Procedure: The pharmacokinetic (PK) properties of test compound following single intravenous (IV) bolus and oral gavage (PO) administration in male Sprague-Dawley (SD) rats were determined in this study.
Test compound administration: Six male Sprague Dawley (SD) rats were divided into two designated groups, Group 1 and Group 2, each composed of three rat subjects. Group 1 animals were subjected to a single intravenous bolus administration of the test compound at a dosage of 1 mg/kg. Group 2 animals were administered with the test compound orally in a single dose, at a concentration of 10 mg/kg. Throughout the study, the animals had unhindered access to food. The test compound was administered at a concentration of 0.5 mg/mL and dose volume of 2 mL/kg for Group 1, and at a concentration of 1 mg/mL and dose volume of 10 mL/kg, for Group 2.
Sample extraction and analysis: Plasma samples were systematically collected at varying time points of 0.083 (only for Group 1), 0.25, 0.5, 1, 2, 4-, 6-, 8-, and 24-hours post-dose. LC-MS/MS was used to determine the test compound's concentration within the collected plasma samples. Data reflecting plasma concentration in correlation to time were graphically represented and subjected to a non-compartmental analysis using the Phoenix WinNonlin 6.3 software program. The resulting pharmacokinetic parameters, including Clearance (Cl), Volume of distribution at steady state (Vdss) and initial concentration (C0) for intravenous administration; peak concentration (Cmax), time of peak concentration (Tmax), and bioavailability (% F) for extravascular administration; and half-life (T1/2), Area Under Curve from time zero to time t (AUC(0-t)), Area Under Curve from time zero to infinity (AUC(0-inf)), Mean Residence Time from time zero to time t (MRT(0-t)), Mean Residence Time from time zero to infinity (MRT(0-inf)) for all routes, were systematically calculated.

hTRPV1 = biological target: T1, hTRPV1 (Homo sapiens, UniProt Q8NER1); assay: hTRPV1 dual activity electrophysiology, CHO cells co-expressing hKv7.2/3 and hTRPV1; type: cell-based; details: Kv7.2/3 co-expressed and activated, capsaicin; read-out: Dual hTRPV1 / Dual Expressing CHO, CAP IC50
T1 construct: CDS of NM_080704.4, inserted into the multiple cloning site of pcDNA3.1(+); host or cells: CHO/hKv7.2/3
T1 sequence (Q8NER1 whole entry): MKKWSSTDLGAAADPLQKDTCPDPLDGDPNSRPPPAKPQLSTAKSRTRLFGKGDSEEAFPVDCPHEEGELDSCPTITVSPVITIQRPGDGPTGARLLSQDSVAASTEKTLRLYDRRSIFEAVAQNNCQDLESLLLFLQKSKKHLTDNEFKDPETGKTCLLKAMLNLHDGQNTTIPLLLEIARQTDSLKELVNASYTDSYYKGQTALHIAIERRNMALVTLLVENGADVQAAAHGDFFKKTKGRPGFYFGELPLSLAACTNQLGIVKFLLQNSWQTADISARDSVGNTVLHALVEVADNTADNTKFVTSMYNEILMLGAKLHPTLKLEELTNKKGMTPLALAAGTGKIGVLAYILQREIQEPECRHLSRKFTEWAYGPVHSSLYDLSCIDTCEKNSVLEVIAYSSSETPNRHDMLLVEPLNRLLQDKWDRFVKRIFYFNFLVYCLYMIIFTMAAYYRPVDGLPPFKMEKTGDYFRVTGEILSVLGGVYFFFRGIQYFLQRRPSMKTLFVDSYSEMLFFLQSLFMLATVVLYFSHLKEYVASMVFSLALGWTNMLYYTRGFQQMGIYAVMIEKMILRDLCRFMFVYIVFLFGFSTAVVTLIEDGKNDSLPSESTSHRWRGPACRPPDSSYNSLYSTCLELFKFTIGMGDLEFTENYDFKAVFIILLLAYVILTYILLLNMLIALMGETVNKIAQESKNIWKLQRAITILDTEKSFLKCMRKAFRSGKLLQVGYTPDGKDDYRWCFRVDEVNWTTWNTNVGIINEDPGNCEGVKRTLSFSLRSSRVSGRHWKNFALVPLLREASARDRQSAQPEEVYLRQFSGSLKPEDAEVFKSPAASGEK
Procedure: Cell culture and DNA transfection: CHO/hKv7.2/3 cells were transfected with hTRPV1 DNA constructs (CDS of NM_080704.4, inserted into the multiple cloning site of pcDNA3.1(+) between the Hind III and BamH I restriction site, Genscript). For CHO transfection, 1×10^6 cells were suspended in a reaction mix (Amaxa™ 4D-Nucleofector™-LONZA) containing 5 μg of hTRPV1 DNA and 0.5 μg of GFP DNA (for cells selection) in a cuvette.
The cells were transformed (Amaxa, DT-133 program for CHO transfection with p-3 Kit) and recovered for 10 minutes at RT in the hood. Then cells were re-suspended in a 10 mL antibiotic (Ab)-free medium suspension and were plated on Gelatin or PLL-coated cover glass in different cell densities. On the next morning, the medium was changed to full medium containing the CHO/hKv7.2/3 cell line selection antibiotics.
Extracellular (Bath) solution: The solution was composed of (in mM): NaCl, 140; KCl, 4; CaCl2, 1.8; MgCl2, 1.2; Glucose, 11; HEPES, 5.5. pH was adjusted to 7.3 with NaOH. Osmolarity was adjusted to 310 mOsm with Sucrose.
Intracellular (Pipette) solution: Pipettes were pulled from borosilicate glass (Warner Instrument Corp, USA) with a resistance of 3-7 MΩ and were filled with internal solution composed of (in mM): KCl, 130; MgCl2, 1; K ATP, 5; EGTA, 5; HEPES, 10. pH was adjusted to 7.3 with KOH. Osmolarity was adjusted to 290 mOsm with Sucrose.
A programmable valve-linked pressurized perfusion system was used for local application of compounds nearby the cell recorded in a consistent flow rate of 2-3 mL/minute. Series resistance was corrected and data were sampled at 5 kHz and low pass filtered at 2.4 kHz using MultiClamp 700B amplifier with pCLAMP11 software (Molecular Devices, USA).
At least 48 hours following cell transfection and plating, cells were recorded to assess the TRPV1 dual activity. Membrane potential was held at −90 mV. To measure the inhibitory effects of the tested compounds on hTRPV1 dual activity the following protocol was performed:
Cells were perfused with vehicle-only containing bath solution. After 30 seconds, a single −40 mV 1.5 second step was applied for Kv7.2/3 activation and 30 seconds later capsaicin (1 μM) was applied for 6 seconds to activate the TRPV1.
Cells perfusion was changed to a compound-containing bath solution, and after 2 minutes and 30 seconds of compound application, a single −40 mV 1.5 second step was applied for Kv7.2/3 activation and 30 seconds later capsaicin (1 μM) was applied for 6 seconds to activate the TRPV1.
Cells perfusion was thereafter changed back to vehicle only-containing bath solution. After 30 seconds, a single −40 mV 1.5 step was applied for Kv7.2/3 activation and 30 seconds later capsaicin (1 μM) was applied for 6 seconds to activate the TRPV1 followed by a capsaicin wash out.
The drug current response, when capsaicin was injected following 3 minutes of pre-incubation with the test compound, was divided by the averaged control currents, induced without compound, before compound incubation and following its washout, to evaluate the drug/control response.

[4] = 1-octanol/phosphate buffer, read-out: LogD

| CYP-TDI (midazolam), (−)NADPH/(+)NADPH Ratio CYP3A4 (CYP3A4) | clearance (Rat pharmacokinetics; iv, 1 mg/kg, read-out: PK: Cl) | bioavailability (Rat pharmacokinetics; po, 10 mg/kg, read-out: PK: Oral BA) | logD [1, 4] | half-life at 1 µM [2] | IC50 (hTRPV1) | Structure (SMILES) | logD [1] | HLM T1/2 [2] | Human Hepatocytes MetID (glutathione conjugation) [3] | HLM and/or Rat PK clearance rates compared to compound 661 [2] |
| --- | --- | --- | --- | --- | --- | --- | --- | --- | --- | --- |
| 1.20 | 42.5 mL/min/kg | 79.7% | 3.3 | 61.9 min | – | O=C(Cc1nccc(-n2cc(Cl)c3cc(Cl)cc(Cl)c32)n1)NCCO [Compound 767] | – | – | did not indicate the presence of glutathione conjugation and None | improved HLM and/or Rat PK clearance rates compared to compound 661 |
| >2.67 | – | – | > 4.1 | 15.4 min | – | CC(C)(C)c1cn(-c2cncc(CC(=O)N[C@@H]3COC[C@H]3O)c2)c2c(Cl)cc(Cl)cc12 [Compound 800] | – | – | – | – |
| – | – | – | – | – | 1.07 µM | O=C(Cc1cc(-n2cc(Cl)c3cc(Cl)cc(Cl)c32)ncn1)NCCO [Compound 851] | 3.38 | 60.6 min | did not indicate the presence of glutathione conjugation | improved HLM and/or Rat PK clearance rates compared to compound 661 |

Further lines, the molecule ahead of its results:

| Structure (SMILES) | CYP-TDI (midazolam), (−)NADPH/(+)NADPH Ratio CYP3A4 (CYP3A4) | clearance (Rat pharmacokinetics; iv, 1 mg/kg, read-out: PK: Cl) | bioavailability (Rat pharmacokinetics; po, 10 mg/kg, read-out: PK: Oral BA) | logD [1, 4] | half-life at 1 µM [2] | IC50 (hTRPV1) | logD [1] | HLM T1/2 [2] | Human Hepatocytes MetID (glutathione conjugation) [3] | HLM and/or Rat PK clearance rates compared to compound 661 [2] |
| --- | --- | --- | --- | --- | --- | --- | --- | --- | --- | --- |
| CC1CN(c2cncc(CC(=O)NC3COCC3O)c2)c2c(Cl)cc(Cl)cc21 (mixture of isomers) [Compound 710] | 1.22 | – | – | – | – | – | 2.88 | 10.1 min | did not indicate the presence of glutathione conjugation | – |
| CC1(C)CN(c2cncc(CC(=O)NC3COCC3O)c2)c2c(Cl)cc(Cl)cc21 (stereo not shown) [Compound 720] | >1.6 | – | – | – | – | – | 3.24 | 6.1 min | – | – |
| O=C(Cc1cncc(N2CC3(CC3)c3cc(Cl)cc(Cl)c32)c1)NC1COCC1O (stereo not shown) [Compound 730] | >1.57 | – | – | – | – | – | 3.22 | 9.9 min | – | – |
| O=C(Cc1cncc(-n2cc(C(F)(F)F)c3cc(Cl)cc(Cl)c32)c1)N[C@@H]1COC[C@H]1O [Compound 770] | >1.9 | – | – | 3.88 | 34.8 min | – | – | – | – | – |
| O=C(Cc1cncc(-n2cc(C3CC3)c3cc(Cl)cc(Cl)c32)c1)N[C@@H]1COC[C@H]1O [Compound 790] | 2.04 | – | – | 4.29 | 26.7 min | – | – | – | – | – |
